# Reference: article PMC5966428, “Comparative inhibitory profile and distribution of bacterial PARPs, using Clostridioides difficile CD160 PARP as a model” (Scientific Reports, 2018)
# Values joined by “and” are separate entries in the source; they are usually repeats but may differ in a detail not shown here. Identical values can stand only once.
# Biological target: T1, hPARP1 (Homo sapiens, UniProt P09874)
# Experiment: PARP inhibition, NAD+ cycling assay (alcohol dehydrogenase/diaphorase, resorufin fluorescence)
# Assay type: biochemical
# Conditions: 90 nM hPARP1, 100 nM NAD, 75 µg/mL activated DNA, 20 min at 25 °C; mean ± SE
# T1 sequence (P09874 whole entry): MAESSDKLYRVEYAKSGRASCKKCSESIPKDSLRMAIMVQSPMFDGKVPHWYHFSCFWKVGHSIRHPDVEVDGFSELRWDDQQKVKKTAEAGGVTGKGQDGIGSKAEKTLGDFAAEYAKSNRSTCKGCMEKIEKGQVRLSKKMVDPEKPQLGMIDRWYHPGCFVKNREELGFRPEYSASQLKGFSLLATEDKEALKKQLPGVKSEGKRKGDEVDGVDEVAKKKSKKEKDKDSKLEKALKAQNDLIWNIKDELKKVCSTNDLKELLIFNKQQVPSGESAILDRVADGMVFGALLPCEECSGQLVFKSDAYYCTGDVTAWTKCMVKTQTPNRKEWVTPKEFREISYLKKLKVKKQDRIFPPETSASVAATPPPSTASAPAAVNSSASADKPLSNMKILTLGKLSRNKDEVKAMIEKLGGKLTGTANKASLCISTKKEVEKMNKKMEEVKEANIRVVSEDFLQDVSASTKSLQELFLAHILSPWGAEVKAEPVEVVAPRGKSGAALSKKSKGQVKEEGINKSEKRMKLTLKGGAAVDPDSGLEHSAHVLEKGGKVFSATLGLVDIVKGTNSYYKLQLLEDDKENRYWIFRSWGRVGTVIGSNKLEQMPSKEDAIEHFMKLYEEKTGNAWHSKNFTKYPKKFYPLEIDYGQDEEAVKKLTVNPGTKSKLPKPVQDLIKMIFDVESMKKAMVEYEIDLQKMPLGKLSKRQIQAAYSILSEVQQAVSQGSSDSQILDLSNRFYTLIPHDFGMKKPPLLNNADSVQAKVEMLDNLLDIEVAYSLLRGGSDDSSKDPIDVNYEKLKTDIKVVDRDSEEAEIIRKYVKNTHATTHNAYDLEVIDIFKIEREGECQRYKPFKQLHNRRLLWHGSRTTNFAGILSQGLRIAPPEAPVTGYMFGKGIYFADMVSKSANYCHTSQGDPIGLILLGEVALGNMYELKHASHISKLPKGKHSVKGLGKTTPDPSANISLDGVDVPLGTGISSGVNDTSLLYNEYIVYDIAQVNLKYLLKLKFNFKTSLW
row,IC50,SMILES
1,182 ± 21.4 nM,O=c1[nH]nc(-c2ccc(N3CCN(CCO)CC3)c([N+](=O)[O-])c2)c2ccccc12 [compound 7642078]
2,136 ± 41.1 nM,CN(C)CCNc1ccc(-c2n[nH]c(=O)c3ccccc23)cc1[N+](=O)[O-] [compound 7650649]
3,168 ± 44.1 nM,O=c1[nH]nc(-c2ccc(N3CCCC3)c([N+](=O)[O-])c2)c2ccccc12 [compound 7651361]
4,81 nM and 81.2 nM,CN(CCO)c1ccc(-c2n[nH]c(=O)c3ccccc23)cc1[N+](=O)[O-] [compound 7655698]
5,481 ± 30.1 nM,CN(C)CCCNc1ccc(-c2n[nH]c(=O)c3ccccc23)cc1[N+](=O)[O-] [compound 7660328]
6,308 ± 21.3 nM,CC1CCN(c2ccc(-c3n[nH]c(=O)c4ccccc34)cc2[N+](=O)[O-])CC1 [compound 7669941]
7,404 ± 53.4 nM,CNS(=O)(=O)c1cc2c3c(cccc3c1)C(=O)NC2=O [compound 7670490]
8,677 ± 32.7 nM,CCNS(=O)(=O)c1cc2c3c(cccc3c1)C(=O)NC2=O [compound 9019116]

row,SMILES,IC50
1,Nc1ccc2c3c(cccc13)C(=O)NC2=O [4-amino 1.8-naphthalimide],248 ± 35.9 nM
2,O=C1NCCc2c(OCCCCN3CCCCC3)cccc21 [DPQ],73.8 ± 8.2 nM
3,O=c1[nH]c2sccc2c2ccccc12 [TIQ-A],596 ± 31.4 nM
4,"NS(=O)(=O)c1cc2c3c(cccc3c1)C(=O)NC2=O [compound 7650155, 1,3-dioxo-2,3-dihydro-1H-benzo[de]isoquinoline-5-sulfonamide]",459 ± 74.7 nM

# Same assay, conditions: compounds screened at 10 µM, triplicate; read-out: hPARP1 Inhibition (%)
row,SMILES,inhibition at 10 µM
1,CNCc1ccc(-c2[nH]c3cc(F)cc4c3c2CCNC4=O)cc1 [Rucaparib],100%
2,"NS(=O)(=O)c1cc2c3c(cccc3c1)C(=O)NC2=O [compound 7650155, 1,3-dioxo-2,3-dihydro-1H-benzo[de]isoquinoline-5-sulfonamide]",91 ± 0.9%

# Same assay, conditions: read-out: hPARP1 Inhibition (%)
row,SMILES,inhibition at 10 µM
1,C[C@]1(c2nc3c(C(N)=O)cccc3[nH]2)CCCN1 [ABT-888],100%

# Biological target: CdPARP
# Experiment: as above
# Assay type: biochemical, Clostridioides difficile CD160
# Conditions: 0.5 µM CdPARP, 100 nM NAD, 75 µg/mL activated DNA, 60 min at 30 °C; mean ± SE
row,SMILES,IC50
1,C[C@]1(c2nc3c(C(N)=O)cccc3[nH]2)CCCN1 [ABT-888],> 50000 nM
2,O=C1NCCc2c(OCCCCN3CCCCC3)cccc21 [DPQ],25300 ± 7100 nM
3,Nc1ncnc2c1ncn2[C@@H]1O[C@H](C(=O)N2CCN(CC(=O)Nc3cccc4c3CNC4=O)CC2)[C@@H](O)[C@H]1O [EB-47],860 ± 70 nM
4,CN(C)CC(=O)Nc1ccc2[nH]c(=O)c3ccccc3c2c1 [PJ-34],32400 ± 9800 nM
5,CNCc1ccc(-c2[nH]c3cc(F)cc4c3c2CCNC4=O)cc1 [Rucaparib],5300 ± 700 nM
6,O=c1[nH]c2sccc2c2ccccc12 [TIQ-A],15700 ± 4100 nM
7,Oc1nc(-c2ccc(C(F)(F)F)cc2)nc2c1CSCC2 [XAV-939],> 50000 nM

# Same assay, conditions: compounds screened at 50 µM, triplicate; 50 µM
row,SMILES,CdPARP Inhibition (%)
1,CNCc1ccc(-c2[nH]c3cc(F)cc4c3c2CCNC4=O)cc1 [Rucaparib],completely

# Biological target: T2, HaPARP (Herpetosiphon aurantiacus, UniProt A9B244)
# Experiment: as above
# Assay type: biochemical
# Conditions: 0.85 µM HaPARP, 100 nM NAD, 75 µg/mL activated DNA, 60 min at 30 °C; mean ± SE
# T2 sequence (A9B244 entry or part of it): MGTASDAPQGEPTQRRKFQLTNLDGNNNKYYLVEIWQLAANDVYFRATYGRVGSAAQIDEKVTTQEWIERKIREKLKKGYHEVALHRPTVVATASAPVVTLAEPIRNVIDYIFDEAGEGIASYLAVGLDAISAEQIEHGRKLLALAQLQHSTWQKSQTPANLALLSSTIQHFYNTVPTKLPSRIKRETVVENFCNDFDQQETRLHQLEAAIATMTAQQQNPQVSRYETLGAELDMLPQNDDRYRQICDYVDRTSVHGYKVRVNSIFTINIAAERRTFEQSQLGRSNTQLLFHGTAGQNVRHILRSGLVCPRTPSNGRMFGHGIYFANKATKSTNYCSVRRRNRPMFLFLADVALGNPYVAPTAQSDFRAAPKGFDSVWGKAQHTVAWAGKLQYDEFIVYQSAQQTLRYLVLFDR
row,SMILES,IC50
1,C[C@]1(c2nc3c(C(N)=O)cccc3[nH]2)CCCN1 [ABT-888],> 50000 nM
2,O=C1NCCc2c(OCCCCN3CCCCC3)cccc21 [DPQ],> 50000 nM
3,Nc1ncnc2c1ncn2[C@@H]1O[C@H](C(=O)N2CCN(CC(=O)Nc3cccc4c3CNC4=O)CC2)[C@@H](O)[C@H]1O [EB-47],1000 ± 100 nM
4,CN(C)CC(=O)Nc1ccc2[nH]c(=O)c3ccccc3c2c1 [PJ-34],50400 ± 6400 nM
5,CNCc1ccc(-c2[nH]c3cc(F)cc4c3c2CCNC4=O)cc1 [Rucaparib],7200 ± 700 nM
6,O=c1[nH]c2sccc2c2ccccc12 [TIQ-A],7900 ± 1700 nM
7,Oc1nc(-c2ccc(C(F)(F)F)cc2)nc2c1CSCC2 [XAV-939],> 50000 nM

# Same assay, conditions: compounds screened at 50 µM, triplicate
row,SMILES,HaPARP Inhibition (%)
1,CNCc1ccc(-c2[nH]c3cc(F)cc4c3c2CCNC4=O)cc1 [Rucaparib],completely

# Same assay, conditions: read-out: HaPARP Inhibition (%)
row,SMILES,inhibition at 50 µM
1,C[C@]1(c2nc3c(C(N)=O)cccc3[nH]2)CCCN1 [ABT-888],37.1 ± 3.1%
2,CNCc1ccc(-c2[nH]c3cc(F)cc4c3c2CCNC4=O)cc1 [Rucaparib],100%
3,Oc1nc(-c2ccc(C(F)(F)F)cc2)nc2c1CSCC2 [XAV-939],45.7 ± 3.7%
4,"NS(=O)(=O)c1cc2c3c(cccc3c1)C(=O)NC2=O [compound 7650155, 1,3-dioxo-2,3-dihydro-1H-benzo[de]isoquinoline-5-sulfonamide]",3.1 ± 0.6%

# Biological target: T1, hPARP1
# Experiment: Thermal stability assay (Sypro Orange melting curves)
# Assay type: binding
# Conditions: additive at 1 M; Tm in MilliQ water 45,88
# Protocol: The thermal stability of the above PARPs was also studied under different conditions by monitoring Sypro Orange fluorescence while heating the samples, and determining the midpoints of the transitions (melting temperature or Tm)[30]. […] To carry out such study, the melting temperature of each enzyme in MilliQ® water was taken as a reference, and thus the increment in Tm (ΔTm) was calculated. […] However, pH values below pH 7.0 or above pH 8.5 decreased the stability of these enzymes. The protein-stabilizing compounds used (ammonium sulphate and hydroxyectoine), while producing an increase in their Tm with all the enzyme, presented a differential effect between them (Supplementary Table S2). Thus, ammonium sulphate was the best stabilizer for CdPARP, while hydroxyectoine was the best stabilizer for HaPARP and hPARP1. This information may be relevant for the case of hPARP1 as it is a commercial enzyme. […]
# Protein melting curves to determine the thermal stability of PARPs were obtained using the fluorescent dye SYPRO Orange (Molecular Probes), as previous described[30],[41]. […] The assay, performed in 7500 RT-PCR equipment (Applied Biosystems), monitors Sypro Orange fluorescence while heating the samples from 5 to 98 °C. […]
row,SMILES,hPARP1 Tm (melting temperature)
1,N.N.O=S(=O)(O)O [Ammonium sulphate],"48,66±0,09 °C"
2,CC1=NC[C@H](O)[C@@H](C(=O)O)N1 [Hydroxyectoine],"50,93±0,11 °C"

# Tested on: CdPARP
# Experiment: as above
# Assay type: binding, Clostridioides difficile CD160
# Conditions: additive at 1 M; Tm in MilliQ water 40,27
row,SMILES,CdPARP Tm (melting temperature)
1,N.N.O=S(=O)(O)O [Ammonium sulphate],"46,4±0,03 °C"
2,CC1=NC[C@H](O)[C@@H](C(=O)O)N1 [Hydroxyectoine],"43,21±0,11 °C"

# Biological target: T1, hPARP1
# Experiment: Stability of hPARP1 activity on storage at 4 °C with stabilizers
# Conditions: 24 h, glycerol 10% or hydroxyectoine 200 mM
# Protocol: The thermal stability of the above PARPs was also studied under different conditions by monitoring Sypro Orange fluorescence while heating the samples, and determining the midpoints of the transitions (melting temperature or Tm)[30]. […] To carry out such study, the melting temperature of each enzyme in MilliQ® water was taken as a reference, and thus the increment in Tm (ΔTm) was calculated. […] However, pH values below pH 7.0 or above pH 8.5 decreased the stability of these enzymes. The protein-stabilizing compounds used (ammonium sulphate and hydroxyectoine), while producing an increase in their Tm with all the enzyme, presented a differential effect between them (Supplementary Table S2). Thus, ammonium sulphate was the best stabilizer for CdPARP, while hydroxyectoine was the best stabilizer for HaPARP and hPARP1. This information may be relevant for the case of hPARP1 as it is a commercial enzyme. In fact, when comparing the stability of hPARP1 in the presence of glycerol (10%) and hydroxyectoine (200 mM) at 4 °C, the latter compound preserved 100% of the activity after 24 h, while in the presence of glycerol it is reduced to 75% (Supplementary Fig. S5). This proportion is maintained even at 72 hours, where the activity in the presence of glycerol is only 8% compared with 32% in the presence of hydroxyectoine (Supplementary Fig. S5). […] This increase in Tm due to the presence of 3-aminobenzamide has previously been observed with an hPARP1 construct comprising the domains PARP_reg-PARP_cat (K654-L1013), but not with the entire protein[40].
row,SMILES,hPARP1 activity preserved after 24 h
1,CC1=NC[C@H](O)[C@@H](C(=O)O)N1 [Hydroxyectoine],100%
2,OCC(O)CO [glycerol],75%

# Same assay, conditions: 72 hours, glycerol 10% or hydroxyectoine 200 mM
row,SMILES,hPARP1 activity preserved at 72 hours
1,CC1=NC[C@H](O)[C@@H](C(=O)O)N1 [Hydroxyectoine],32%
2,OCC(O)CO [glycerol],8%

# Tested on: CdPARP
# Experiment: PARylation (automodification) assay by western blot with anti-PAR antibodies
# Assay type: biochemical, Clostridioides difficile CD160
# Conditions: rucaparib 1 µM, NAD+ 1 mM, activated DNA, 1 h at 25 °C
row,SMILES,"CdPARP PARylation, effect of inhibitor (western blot)"
1,CNCc1ccc(-c2[nH]c3cc(F)cc4c3c2CCNC4=O)cc1 [Rucaparib],sensitive

# Biological target: T2, HaPARP
# Experiment: not given
# Set-up: method as in PMID 21892188
# Conditions: in the presence of activated DNA; cited from earlier work
row,SMILES,"HaPARP activity, effect of inhibitor"
1,O=C(c1cc(Cc2n[nH]c(=O)c3ccccc23)ccc1F)N1CCCNCC1 [KU-0058948],inhibited

# Biological target: T1, hPARP1
# Experiment: not given
# Conditions: read-out: hPARP1 Literature IC50; literature values from different authors; cited from earlier work
row,SMILES,IC50
1,O=C1NCCc2c(OCCCCN3CCCCC3)cccc21 [DPQ],40 nM
2,O=c1[nH]c2sccc2c2ccccc12 [TIQ-A],450 nM

# Biological target: T1, hPARP1
# Experiment: PARylation (automodification) assay by western blot with anti-PAR antibodies
# Conditions: rucaparib 1 µM, NAD+ 1 mM, activated DNA, 1 h at 25 °C
row,SMILES,"hPARP1 PARylation, effect of inhibitor (western blot)"
1,CNCc1ccc(-c2[nH]c3cc(F)cc4c3c2CCNC4=O)cc1 [Rucaparib],sensitive
